# “Also recorded” adds a separate entry of the source.
# Experiments:
# Rho° (ρ^0) cells = assay: Green:red fluorescence (ATP) on treatment; assay type: cell-based, mouse; conditions: 10 mM 2dOG replacing glucose
# Protocol: (§1) Rho° and the parental LMTK-cells were maintained in T-75 flasks with DMEM+10% FBS+1 mM pyruvate+5 μM uridine. Two days prior to transfection, they were split into a 24-well plate (half Rho°, half LMTK) at 0.6 and 0.1 million cells per well, respectively. Cells were transfected with iATPSnFR2.HaloTag variants by lipofectamine (0.5 μg DNA+2 μL lipofectamine 2000 per well) for 4-6 hours in DMEM lacking FBS or antibiotics. Transfection media was replaced with fresh DMEM+10% FBS+penicillin/streptomycin overnight. Cells were labeled with JFX650 HaloTag ligand by adding the fluorophore to 100 nM for an hour. Cells were washed with Mammalian Cell Imaging Buffer and imaged in a Cytation 5 imaging reader (BioTek) over the course of about 2 hours. After about 20 minutes of imaging to establish a baseline fluorescence, the culture plate was removed from the instrument and buffer was replaced with the query buffer. The equilibration buffer contained 10 mM glucose, and the query buffers contained 10 mM 2dOG.
# (§2) Images were background subtracted and aligned for movement artefacts with the Gen5 software package that controls the Cytation 5 instrument. Images were assembled as TIF stacks and imported into ImageJ. […] Those ROIs were used to determine the ratio of green to red fluorescence for each well. […]
# [1] = system: LMTK- cells (parental fibroblast cell line); assay: Green:red fluorescence (ATP) on treatment; assay type: cell-based, mouse; conditions: 10 mM 2dOG replacing glucose
# Protocol: as §1, §2
# [2] = biological target: T1, iATPSnFR2 (L1-VLVG, L2-ICV, A95A, A119L; cpSFGFP inserted in epsilon subunit of Bacillus subtilis PS3 F0-F1 ATPase; SEQ ID NO: 1 / SEQ ID NO: 13) (Bacillus sp. PS3, UniProt P07678); assay: Fluorescence response to ATP; assay type: biochemical
# T1 construct: QD to VL at junction, L1-VLVG, L2-ICV; E. coli BL21(DE3)pLysS, Ni-NTA; HaloTag-JFX650 fusion possible
# T1 sequence (P07678 whole entry, stated change not applied, the tested form may be a part): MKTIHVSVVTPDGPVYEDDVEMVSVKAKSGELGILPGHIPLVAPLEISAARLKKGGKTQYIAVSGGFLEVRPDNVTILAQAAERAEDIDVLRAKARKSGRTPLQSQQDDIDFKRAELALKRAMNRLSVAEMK
# Protocol: (grey) and 37° C. (black). Error bars are s.d. of three technical replicates. Fluorescence was measured in a Cytation 5 plate reader, which has relatively rapid heating.
# HaloTag-JF635 = assay: Titration of HaloTag-JF635 with ATP; assay type: biochemical; conditions: FIG. 8B
# [3] = biological target: T2, iATPSnFR2.A95K.HaloTag-JFX650 (L1-VLVG, L2-ICV); cpSFGFP inserted in epsilon subunit of Bacillus subtilis PS3 F0-F1 ATPase; mutation A95K; SEQ ID NO: 5, without (Bacillus sp., UniProt P07678, A95K/DELINS96-108[…]/F67N/L78Y/N74K/V42K); assay: ATP/nucleotide titration, binding curve fits; conditions: stopped flow
# T2 construct: polyhistidine tag (bacterial expression vector); made in house; host or cells: E. coli BL21 (DE3) pLysS
# T2 sequence (P07678 other isoform, or with tags, fused parts or gaps V42K/F67N/N74K/L78Y): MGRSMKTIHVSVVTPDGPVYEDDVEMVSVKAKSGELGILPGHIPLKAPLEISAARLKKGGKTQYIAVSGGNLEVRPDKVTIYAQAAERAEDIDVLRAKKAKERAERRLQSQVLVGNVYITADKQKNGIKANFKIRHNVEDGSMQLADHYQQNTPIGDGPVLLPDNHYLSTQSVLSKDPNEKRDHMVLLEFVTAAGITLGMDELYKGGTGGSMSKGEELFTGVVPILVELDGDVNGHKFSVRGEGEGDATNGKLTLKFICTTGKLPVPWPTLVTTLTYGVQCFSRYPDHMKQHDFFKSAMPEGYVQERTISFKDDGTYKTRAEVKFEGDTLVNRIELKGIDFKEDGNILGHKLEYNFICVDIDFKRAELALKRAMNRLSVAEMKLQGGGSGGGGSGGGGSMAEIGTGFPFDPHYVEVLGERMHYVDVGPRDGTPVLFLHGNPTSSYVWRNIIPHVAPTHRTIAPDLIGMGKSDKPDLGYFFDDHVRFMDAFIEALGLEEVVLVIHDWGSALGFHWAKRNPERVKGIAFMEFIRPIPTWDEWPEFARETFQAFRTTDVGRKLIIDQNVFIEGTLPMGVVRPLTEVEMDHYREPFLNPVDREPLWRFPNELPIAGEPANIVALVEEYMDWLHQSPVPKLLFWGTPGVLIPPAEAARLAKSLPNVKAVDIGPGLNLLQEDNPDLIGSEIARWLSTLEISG
# Text: (§3) (1A) Artistic rendering of iATPSnFR2.HaloTag made with PyMol. The N-terminal fragment (residues 1-109) of the epsilon subunit of ATPase (orange, based on 2E5Y.PDB) is fused to cpSFGFP (green). The C-terminus of cpSFGFP is fused to the residual ATP-binding helix (residues 110-129) of the epsilon subunit (pink), which itself is fused to HaloTag (cyan). “Linkers” are shown as sticks in yellow. […] HaloTag fluorophore is shown as sticks in red. […] (1C-1E) Ratio of green (iATPSnFR2) to red (HaloTag-JFX650) fluorescence in fibroblasts transfected with three affinity variants of iATPSnFR2-HaloTag. […] Cells were incubated for 21 minutes in buffer containing 10 mM glucose, and then switched to buffer containing 10 mM 2-deoxyglucose. (1C) Rho° cells. (1D) Parental LMTK cell line. (1E) Parental cell line treated with both 2-deoxyglucose and oligomycin.
# (§4) ATP (black), CTP (cyan), GTP (grey), TTP (purple).
# (§5) Purified protein was mixed with 1.1 molar equivalents of JFX650 HaloTag Ligand and incubated at room temperature for 1 hour and then at 4° C. overnight. Excess HaloTag Ligand was removed by gel filtration on a PD-10 column (GE Life Sciences) and re-concentrated by ultrafiltration.
# [4] = biological target: T3, iATPSnFR2.S29W.A95K.HaloTag-JFX650 (L1-VLVG, L2-ICV); cpSFGFP inserted in epsilon subunit of Bacillus subtilis PS3 F0-F1 ATPase; mutations A95K, S29W; SEQ ID NO: (Bacillus sp., UniProt P07678, A95K/DELINS96-108[…]/F67N/L78Y/N74K/S29W/V42K); assay: ATP/nucleotide titration, binding curve fits; conditions: stopped flow
# T3 construct: polyhistidine tag (bacterial expression vector); made in house; host or cells: E. coli BL21 (DE3) pLysS
# T3 sequence (P07678 other isoform, or with tags, fused parts or gaps S29W/V42K/F67N/N74K/L78Y): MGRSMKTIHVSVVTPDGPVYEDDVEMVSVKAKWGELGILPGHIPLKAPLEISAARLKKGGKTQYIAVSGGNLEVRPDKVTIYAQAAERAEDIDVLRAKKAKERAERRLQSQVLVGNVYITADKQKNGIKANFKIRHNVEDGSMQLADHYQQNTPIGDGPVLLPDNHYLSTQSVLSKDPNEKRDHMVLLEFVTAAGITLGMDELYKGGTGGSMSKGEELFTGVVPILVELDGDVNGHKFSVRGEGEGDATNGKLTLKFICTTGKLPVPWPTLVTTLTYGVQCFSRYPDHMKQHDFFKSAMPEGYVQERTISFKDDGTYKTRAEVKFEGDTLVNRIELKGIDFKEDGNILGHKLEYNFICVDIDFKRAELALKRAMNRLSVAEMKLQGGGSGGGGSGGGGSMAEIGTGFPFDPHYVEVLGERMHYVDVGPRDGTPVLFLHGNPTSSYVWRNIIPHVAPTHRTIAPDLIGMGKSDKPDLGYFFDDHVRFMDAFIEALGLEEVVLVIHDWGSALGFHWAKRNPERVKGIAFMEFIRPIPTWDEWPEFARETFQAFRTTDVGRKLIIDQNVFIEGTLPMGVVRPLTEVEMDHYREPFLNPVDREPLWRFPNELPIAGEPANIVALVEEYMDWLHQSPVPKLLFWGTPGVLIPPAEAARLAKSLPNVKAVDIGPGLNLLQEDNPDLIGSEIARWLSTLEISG
# Text: as §3, §4, §5
# ChemoG-ATPSiR = conditions: read-out: affinity for ATP; cited from earlier work
# [5] = system: iATPSnFR2.HaloTag-JFX650, three variants S29W.A95K, A95K and A95A.A119L; assay: Stopped-flow kinetics of ATP binding; assay type: biochemical, Bacillus subtilis PS3; conditions: ATP 123-10000 μM
# Protocol: Panels are the sensor with a C-terminal fusion to HaloTag-JFX650. […] Fluorescence data collected on an Applied Photophysics SX-20 stopped-flow apparatus with 490 nm LED excitation and 525 nm long pass filter. Data points are average of 5 technical replicates.
# Final concentration of protein was thus 0.1 μM.
# MaLion = conditions: cited from earlier work
# DJ-1 KD neurons = assay: Synaptic endurance in DJ-1 knock-down neurons; assay type: cell-based, Sprague-Dawley rats; conditions: TZ
# Text: (§6) FIG. 11A-11H are experimental results showing that PARK7/DJ-1 is necessary for PGK1 driven hypometabolic resilience.
# (§7) An unbiased chemical screen recently led to the identification of an interaction between PGK1 and DJ-1, the product of the PARK7 gene, a genetic driver of familial PD. DJ-1 is a chaperone with strong structurally similarity to HSP31 but the precise clientele that it supports related to PD is poorly understood. To investigate whether DJ-1 has a functional impact on PGK1 function, we probed PGK1 rescue of hypometabolic synaptic function, but in absence of DJ-1. […] Furthermore, when glucose was substituted with a mixture of lactate and pyruvate, SV recycling kinetics in DJ-1 KD neurons was indistinguishable from control.
# [6] = system: primary hippocampal neurons; assay: Synaptic endurance (vGlutI-pH) under repeated stimulation in 0.1 mM glucose; assay type: cell-based, rat
# [7] = system: nerve terminals of primary hippocampal neurons; assay: Presynaptic ATP dynamics with synapto-iATPSnFR2-miRFP670nano3; assay type: cell-based, rat; conditions: 0.1 mM glucose
# Text: For synapto-iATPSnFR2-miRFP670nano3 experiments, nerve terminals were selected in the miRFP670nano3 channels, blind to the ATPsnfr channel and then background subtracted. The traces are reported as iATPsnfr2 to miRFP670nano3 ratio, Fratio.
# [8] = system: DJ-1 KD neurons, nerve terminals; assay: Presynaptic ATP in DJ-1 knock-down neurons; assay type: cell-based, Sprague-Dawley rats; conditions: TZ
# Text: as §6, §7
# [9] = system: synaptic boutons of hippocampal neurons; assay: Syn-iATPSnFR2.HaloTag imaging of ATP depletion in boutons; assay type: cell-based, rat; conditions: 5 mM glucose + 10 μM KA + 0.3 μM TTX
# [10] = system: axonal mitochondria of primary hippocampal neurons; assay: Mitochondrial ATP in primary hippocampal neurons (mito-iATPSnFR2.A95A.A119L.HaloTag); assay type: cell-based, Sprague-Dawley rats; conditions: 10 μM KA in 5 mM glucose
# Protocol: Primary neuronal cultures were prepared as previously described. Hippocampal CA1 to CA3 regions were dissected, dissociated, and plated onto poly-L-ornithine-coated coverslips. Plating media consisted of the minimal essential medium, 0.5% glucose, insulin (0.024 g/l), transferrin ([…]), GlutaMAX 1%, N-21 (2%), and fetal bovine serum (10%). After 1-3 days in vitro (DIV), cells were fed and maintained in media with the following modifications: cytosine β-D-arabinofuranoside (4 μM) and FBS 5%. Cultures were incubated at 37° C. in a 95% air/5% CO2 incubator. Calcium phosphate-mediated gene transfer was performed on DIV 6-8, and neurons were used for experiments on DIV 14-21.
# Coverslips were loaded onto a custom chamber, mounted on a […], 2.5 mM KCl, […], 25 mM HEPES, 2 mM CaCl2), 2 mM MgCl2, 50 μM DL-2-amino-5-phosphonovaleric acid (APV, AP5), 10 μM 6-cyano-7-nitroquinoxaline-2,3-dione (CNQX), adjusted to pH 7.4. […] Fluorescence was stimulated with OBIS 488 nm LX or OBIS 637 nm LS lasers (Coherent) passing through a laser speckle reducer (LSR 3005 at 12° diffusion angle, Optotune). […]
# Time series of imaging pairs (HaloTag and iATPSnFR2) were automated split into two independent image series using a custom-written Fiji routine to facilitate analysis. […] Synaptic boutons signals were analyzed using homemade script routines in Igor-pro v 6.3.7.2 (Wavemetric, Lake Oswego, OR, USA). […]
# [11] = system: nerve terminals of hippocampal neurons; assay: Nerve terminal ATP in cultured neurons (iATPSnFR2.HaloTag-JFX650); assay type: cell-based, Sprague-Dawley rats
smiles,measurement,setting,value
"OC[C@H]1OC(O)C[C@@H](O)[C@@H]1O (stereo partly shown) [2dOG, 2-deoxyglucose]",change in green fluorescence (ATP),Rho° (ρ^0) cells,green fluorescence rapidly dropped; also recorded: significant decrease in fluorescence
same,change in green fluorescence (ATP),[1],decreased fluorescence only in the parental LMTK-cells expressing the weakest affinity variant (A95A.A119L)
Nc1ncnc2c1ncn2[C@@H]1O[C@H](COP(=O)(O)OP(=O)(O)OP(=O)(O)O)[C@@H](O)[C@H]1O [ATP],ΔF/F in response to saturating ATP,[2],~12
same,sensitivity to ATP,HaloTag-JF635,"sensitive to ATP, albeit with low ΔF/F"
same,rate of ATP binding compared with A95A.A119L,[3],bind ATP faster than the A95A.A119L variant
same,rate of ATP binding compared with A95A.A119L,[4],bind ATP faster than the A95A.A119L variant
same,Kd,ChemoG-ATPSiR,~2000 µM
same,time to bind ATP,[5],within a one or two seconds
same,increase in fluorescence upon saturation with ATP,MaLion,~5 fold
"COc1cc2nc(N3CCN(C(=O)C4CCCO4)CC3)nc(N)c2cc1OC (stereo not shown) [TZ, Terazosin]",recycling restoration: slowing of SV recycling after intense stimulation,DJ-1 KD neurons,could not be reversed
same,synaptic endurance in low glucose,[6]; 1 μM,ineffective
same,synaptic endurance in low glucose,[6]; 10 μM,conferred significant resilience
same,synaptic endurance in low glucose,[6]; 100 μM,either ineffective or likely deleterious
same,synaptic endurance in low glucose,"[6]; 0.1 mM glucose, concentration not given",confers significant resilience
same,synaptic endurance in low glucose,[6]; absence of DJ-1 (DJ-1 KD),completely failed to restore synaptic endurance
same,synaptic endurance in low glucose,[6]; neurons with shRNA targeting PGK1,eliminated
same,resting (pre-stimulus) nerve terminal ATP,[7],slightly elevated; also recorded: higher starting ATP
same,ATP depletion during stimulation,[7]; 600 APs at 10 Hz,blunted; also recorded: significantly smaller activity-induced drops in ATP
same,ATP production following activity,[7]; DJ-1 KD neurons,no acceleration of ATP production; also recorded: inability of TZ to accelerate ATP kinetics
same,acceleration of ATP production after burst of activity,[8],inability of TZ to accelerate ATP kinetics in absence of DJ-1
CC(C)[C@H]1CC[C@@]2(CO2)[C@H]2C(=O)OCC(C(=O)O)=C[C@H]12 [koningic acid],average green to red fluorescence ratio in boutons,[9],gradually declined over a 5-10 min period
same,change in mitochondrial ATP,[10],gradual decrease of [ATP]
same,decline of average green to red ratio (ATP) without activity,[11]; 10 μM KA with 0.3 μM TTX,gradually declined over a 5-10 min period
same,time for ATP depletion in single boutons after delay,[11]; 10 μM KA with 0.3 μM TTX,10 to 20 s
same,change in fluorescence (ATP) during action potential firing,"[11]; 10 μM KA, 5 mM glucose, 50 Hz 6 sec",even greater decrease in fluorescence that did not recover within the minute and a half observation window

# — patent US20240393319A1, “FLUORESCENT SENSORS AND METHODS OF MAKING AND USING” (Howard Hughes Medical Institute, priority 2023, published 2024)
